From patent US11103467B2, “Method for treating depression” (DEVELCO PHARMA SCHWEIZ AG, priority 2014, dated 2021)

Conditions: both, human, serum, iv, 5 mg

Structure (SMILES): CNC1(c2ccccc2Cl)CCCCC1=O (racemic) [(±)-ketamine, 2-(2-chlorophenyl)-2-(methylamino)cyclohexan-1-one]
- AUC(0-inf): 59.9 ± 13.2 ng·h/mL
- Cmax: 33.7 ± 9.74 ng/mL
- half-life: 6.99 ± 5.22 h
